Experimental findings from patent publication US20200283728A1, “MODIFIED T CELLS AND USES THEREOF” (MUSC FOUNDATION FOR RESEARCH DEVELOPMENT, priority 2017, published 2020) are described below.

Common to all, as to format: cell-based, mouse
The test system of test [1] is ICOS-activated Th17 cells. In words: Memory and regulatory phenotype of ICOS-stimulated Th17 cells expanded with inhibitors (flow cytometry). The conditions noted are these: day 8 in vitro. The method, then: (§1) Expansion of Th17 cells with Wnt/β-catenin and PI3K inhibitors in vitro: TRP-1 splenocytes were activated with irradiated (10Gy) C57BL/6 splenocytes pulsed with TRP-1 peptide (1 μM) added at a 5:1 ratio in 24-well plates (1 mL media containing 1.5×10^6 cells/well). TRP-1 splenocytes were co-stimulated with soluble ICOS agonist (Clone 398.4A, BioLegend) and polarized toward Th17 phenotype as describe above. For in vitro expansion from day 0 of culture 10 μM Ly294002 (Cayman Chemical) or 10 μM CAL-101 (Selleckchem) and/or 60 μM indomethacin (Sigma-Aldrich) was added. Also dimethylosulfoxide 0.01% (Sigma-Aldrich) was added as a control. Th17 cultures were also supplemented with hrIL-2 (100 IU/mL) and rmIL-23 ([…]; R&D). Medium, including cytokines and inhibitors was refreshed every 2-3 days.
Surface staining of Th17 cells was performed with anti-CD4-APCCy7, anti-Vβ14-FITC (BD Biosciences) anti-CD62L-APC, anti-CD44-PerCPCy5.5, anti-CCR6-PE, anti-CD69-PECy7, anti-CCR7-PE, anti-CD27-PE, anti-CD28-PerCPCy5.5, anti-ICOS-PE and anti-CD25-PECy7/FITC (BioLegend) and viability stain (Invitrogen) on day 8. For all intracellular staining of cytokines (anti-IL-17 PerCPCy5.5, anti-IFN-γ-v450, anti-IL-2-FITC, anti-IL-21-APC, anti-IL-22-PE, anti-TNF-α-FITC; BioLegend) and transcription factors (anti-RORγt-APC, anti-cMaf-PerCPCy5.5, anti-STAT-3-PE, anti-FoxP3-FITC/PE, anti-T-bet-v450; eBiosciences), cells were stimulated for 4-5 h with 50 ng/mL PMA and 750 ng/mL ionomycin (Sigma-Aldrich). Additional antibodies used include: CD127-PECy7 clone A019D5, CD25-APCCy7 clone BC96, CD4-APCCy7 OKT4, CD45RO-APC clone UCHL1, CD62L-FITC clone DREG-56, CD8-PerCPCy5.5 clone SKI, TIM3-PE clone F38-2E2 (biolegend); CCR7-PECy7 clone CCR7, CD8-V450 clone RPA-T8, PD1-FITC clone M1H4, (BD Biosciences). […] Data were analyzed with FlowJo software (TreeStar). […]

The test system of test [2] is Wnt/β-catenin pathway. In words: Wnt/β-catenin pathway expression in Th17 cells (Western blot, real-time PCR). How it is done:
Total RNA isolation was performed using the Trizol method (Life Technologies) according to the manufacturer's procedure. RNA quantity and purity was assessed using a NanoDrop ND-1000. 1 μg total RNA was transcribed with Transcriptor First Strand cDNA Synthesis Kit (Roche). qReal-time PCR was performed on LightCycler480 machine following manufacturer's protocols (Roche). Probes utilized include Rorc, IL-17, Cmaf IL-21, Cpt-1a, Tcf-7, Lef-1, Cnnb1. All probes are commercially available (ABI). Relative gene expression was determined by the comparative CT method (45). β-actin was used as housekeeping gene.
Nuclear and cytoplasmic protein were isolated by lysis using Nuclear and Cytoplasmic Extraction Reagent with Protease&Phosphatase Inhibitor Cocktail (ThermoScientific). Protein concentration was quantified using […] (ThermoScientific) according to the manufacturer's instructions. 10 to 30 μg of total protein was separated on a Mini-PROTEAN TGX, Any kD™ gel, followed by transfer onto PVDF membrane (Bio-Rad). The membranes were blocked with 5% BSA in TBS buffer containing 0.5% Tween20. The membranes were then incubated overnight at 4° C. with the primary antibodies to β-catenin (BD Bioscience), p110δ, Tcf7 (Abcam), RORγt (Affymetrix) phospho-Akt, total-Akt, STAT-3, Histone-3, Lef1 (abcam), and GAPDH (Cell Signaling) at the concentration recommended by manufactures. Subsequently, membranes were washed and incubated for 1 h at room temperature with (HRP)-conjugated goat antibodies to mouse or rabbit IgG (Cell Signaling). For detection of protein, chemiluminescence method was performed using Western ECL Blotting Substrate (Bio-Rad) followed by X-ray film-based imaging method (ThermoScientific). Quantification of optical density performed using Fiji analysis software (NIH).

The test system of test [3] is ICOS-stimulated Th17 cells. The test is described as follows: Growth and survival of ICOS-stimulated Th17 cells expanded with inhibitors. Particulars: in vitro expansion, day 7. The method, then: as §1, with “TRP-1” left out

As for `COc1ccc2c(c1)c(CC(=O)O)c(C)n2C(=O)c1ccc(Cl)cc1` [Indo, indomethacin], the “central memory phenotype (CD44^highCD62L^high)” value in test [1] is given as “did not impact their memory phenotype”. Besides, the “nuclear β-catenin after re-stimulation” value in test [2] (antigen specific re-stimulation in vitro) is recorded as “re-expressed β-catenin to the level observed in un-treated ICOS stimulated Th17 cells”. Also, in test [2] (day 8, before re-stimulation / transfer), the “nuclear β-catenin expression” value is “abolish β-catenin translocation to the nucleus”. Besides, in test [3], the “Th17 cell growth or survival” value is given as “did not impair”.
